Tests used:
[1] = tested on: Human immunodeficiency virus; experiment: Antiviral activity against HIV LAI infected in human MT2 cells assessed as inhibition of viral growth; type: functional, organism-based; conditions: Human immunodeficiency virus 1, LAI
[2] = molecular target: Human immunodeficiency virus type 1 protease (Human immunodeficiency virus 1, UniProt Q72874); experiment: Inhibition of HIV-1 protease expressed in Escherichia coli assessed as inhibition constant using Ac-Thr-Ile-Met-Met-Gln-Arg as substrate preincubated for 10 mins followed by substrate addition by HPLC analysis

Compound	IC50 [1] [nM]	Ki [2] [nM]
COc1ccc(S(=O)(=O)N(CC(C)C)C[C@@H](O)[C@H](Cc2ccccc2)NC(=O)c2ccc(C)c(Nc3nc(C(F)(F)F)cs3)c2)cc1	> 1000	–
COc1ccc(S(=O)(=O)N(CC(C)C)C[C@@H](O)[C@H](Cc2ccccc2)NC(=O)c2cc(Nc3nc(-c4cccnc4)cs3)ccc2C)cc1	580	8.7
COc1ccc(S(=O)(=O)N(CC(C)C)C[C@@H](O)[C@H](Cc2ccccc2)NC(=O)c2ccc(C)c(Nc3nc(-c4cccnc4)cs3)c2C)cc1	510	–
COc1ccc(S(=O)(=O)N(CC(C)C)C[C@@H](O)[C@H](Cc2ccccc2)NC(=O)c2ccc(C)c(Nc3nc(C)cs3)c2)cc1	> 1000	26.5
COc1ccc(S(=O)(=O)N(CC(C)C)C[C@@H](O)[C@H](Cc2ccccc2)NC(=O)c2cccc(Nc3nc(C(F)(F)F)cs3)c2C)cc1	> 1000	–
Cc1ccc(C(=O)N[C@@H](Cc2cc(F)cc(F)c2)[C@H](O)CN(CC(C)C)S(=O)(=O)c2ccc(N)cc2)cc1Nc1nccc(-c2cccnc2)n1	212	–
COc1ccc(S(=O)(=O)N(CC(C)C)C[C@@H](O)[C@H](Cc2ccccc2)NC(=O)c2ccc(C)c(Nc3nccc(-c4cccnc4)n3)c2)cc1	154	0.028
COc1ccc(S(=O)(=O)N(CC(C)C)C[C@@H](O)[C@H](Cc2ccccc2)NC(=O)c2cc(Nc3nc(C)cs3)ccc2C)cc1	> 1000	–
CC(C)CN(C[C@@H](O)[C@H](Cc1ccccc1)NC(=O)O[C@H]1CO[C@H]2OCC[C@H]21)S(=O)(=O)c1ccc(N)cc1	2.1	–
COc1ccc(S(=O)(=O)N(CC(C)C)C[C@@H](O)[C@H](Cc2ccccc2)NC(=O)c2cccc(Nc3nc(-c4cccnc4)cs3)c2C)cc1	> 1000	19.3
Cc1ccc(C(=O)N[C@@H](Cc2ccccc2)[C@H](O)CN(CC(C)C)S(=O)(=O)c2ccc(N)cc2)cc1Nc1nccc(-c2cccnc2)n1	66.8	–
COc1ccc(S(=O)(=O)N(CC(C)C)C[C@@H](O)[C@H](Cc2cc(F)cc(F)c2)NC(=O)c2ccc(C)c(Nc3nccc(-c4cccnc4)n3)c2)cc1	124	–
COc1ccc(S(=O)(=O)N(CC(C)C)C[C@@H](O)[C@H](Cc2ccccc2)NC(=O)c2cccc(Nc3nc(C)cs3)c2C)cc1	> 1000	–
COc1ccc(S(=O)(=O)N(CC(C)C)C[C@@H](O)[C@H](Cc2ccccc2)NC(=O)c2ccc(C)c(Nc3nc(-c4cccnc4)cs3)c2)cc1	390	–
COc1ccc(S(=O)(=O)N(CC(C)C)C[C@@H](O)[C@H](Cc2ccccc2)NC(=O)c2cc(C)cc(Nc3nc(C)cs3)c2)cc1	> 1000	–
COc1ccc(S(=O)(=O)N(CC(C)C)C[C@@H](O)[C@H](Cc2ccccc2)NC(=O)c2cc(C)cc(Nc3nc(-c4cccnc4)cs3)c2)cc1	> 1000	–
COCc1csc(Nc2ccc(C)c(C(=O)N[C@@H](Cc3ccccc3)[C@H](O)CN(CC(C)C)S(=O)(=O)c3ccc(OC)cc3)c2)n1	630	–

From ChEMBL document CHEMBL5321239, “Exploration of imatinib and nilotinib-derived templates as the P2-Ligand for HIV-1 protease inhibitors: Design, synthesis, protein X-ray structural studies, and biological evaluation” (Eur J Med Chem, 2023)
